This is an account of results in ChEMBL document CHEMBL3774390, “Azide-enolate 1,3-dipolar cycloaddition in the synthesis of novel triazole-based miconazole analogues as promising antifungal agents” (2016).

In brackets after ≈: the same amount, converted by molar mass.

What all share (format): functional
For one experiment, the system named is Cyberlindnera jadinii. Put plainly: Antifungal activity against Candida utilis ATCC 9226 by M27-A3 protocol-based broth microdilution method. Particulars: Williopsis jadinii.
The subject of a further experiment is Candida albicans. Briefly: Antifungal activity against Candida albicans ATCC 10231 by M27-A3 protocol-based broth microdilution method.
The test system of the next experiment is Candida tropicalis. Put plainly: Antifungal activity against Candida tropicalis ATCC 13803 by M27-A3 protocol-based broth microdilution method.
A further experiment relates to Aspergillus fumigatus. Briefly: Antifungal activity against Aspergillus fumigatus ATCC 16907 by M38-A protocol-based broth microdilution method. (In general: Dilution methods test growth across graded concentrations, often in twofold steps.)
Experiment [1] can be described thus: Antifungal activity against Trichosporon cutaneum ATCC 28592 by M38-A protocol-based microdilution method. The note with it: Cutaneotrichosporon cutaneum.
Another experiment has as its system Rhizopus arrhizus. Put plainly: Antifungal activity against Rhizopus oryzae ATCC 10329 by M38-A protocol-based microdilution method.
The next experiment relates to Mucor hiemalis. Briefly: Antifungal activity against Mucor hiemalis ATCC 8690 by M38-A protocol-based microdilution method.

Usually MIC stands for the smallest concentration in the dilution series that meets the test's criterion for growth inhibition. High values mean weaker potency, low ones greater potency.

With `CC(=O)c1nnn(C(Cn2ccnc2)c2ccc(Cl)cc2Cl)c1C` (stereo unspecified), the MIC in the experiment with Cyberlindnera jadinii was 16 µg/mL (≈ 43.9 µM); in the experiment on Candida albicans it was 16 µg/mL (≈ 43.9 µM); against Candida tropicalis, 16 µg/mL (≈ 43.9 µM); with Aspergillus fumigatus, 16 µg/mL (≈ 43.9 µM); in experiment [1], 16 µg/mL (≈ 43.9 µM); in the experiment with Rhizopus arrhizus it was 8 µg/mL (≈ 22 µM). For the same compound, in the experiment with Mucor hiemalis, the MIC turned out to be 16 µg/mL (≈ 43.9 µM).

Take `Clc1ccc(C(Cn2ccnc2)n2nncc2C2CCCCC2)c(Cl)c1` (stereo unspecified): the MIC came to 16 µg/mL (≈ 41 µM) with Cyberlindnera jadinii; 16 µg/mL (≈ 41 µM) in the experiment with Candida albicans; 8 µg/mL (≈ 20.5 µM) in the experiment on Candida tropicalis; 16 µg/mL (≈ 41 µM) in the experiment with Aspergillus fumigatus; 16 µg/mL (≈ 41 µM) in experiment [1]; 2 µg/mL (≈ 5.12 µM) against Rhizopus arrhizus. In addition, the MIC against Mucor hiemalis is 0.12 µg/mL (≈ 0.307 µM).

`O=C(c1ccccc1)c1nnn(C(Cn2ccnc2)c2ccc(Cl)cc2Cl)c1-c1ccccc1` (stereo unspecified): the MIC worked out at 16 µg/mL (≈ 32.8 µM) with Cyberlindnera jadinii; 0.03 µg/mL (≈ 0.0614 µM) against Candida albicans; 0.06 µg/mL (≈ 0.123 µM) with Candida tropicalis; 16 µg/mL (≈ 32.8 µM) in the experiment on Aspergillus fumigatus; 16 µg/mL (≈ 32.8 µM) in experiment [1]; 8 µg/mL (≈ 16.4 µM) against Rhizopus arrhizus. The compound further gave an MIC against Mucor hiemalis of 16 µg/mL (≈ 32.8 µM).

On to `CCC(C)n1ncn(-c2ccc(N3CCN(c4ccc(OCC5COC(Cn6cncn6)(c6ccc(Cl)cc6Cl)O5)cc4)CC3)cc2)c1=O` (stereo unspecified) [ITRACONAZOLE], for which the MIC was 0.06 µg/mL (≈ 0.085 µM) in the experiment on Cyberlindnera jadinii; 0.03 µg/mL (≈ 0.0425 µM) against Candida albicans; 0.03 µg/mL (≈ 0.0425 µM) against Candida tropicalis; 0.25 µg/mL (≈ 0.354 µM) in the experiment with Aspergillus fumigatus; 1 µg/mL (≈ 1.42 µM) in experiment [1]; 0.5 µg/mL (≈ 0.709 µM) with Rhizopus arrhizus. Moreover, the MIC against Mucor hiemalis amounted to 1 µg/mL (≈ 1.42 µM).

Consider `N#Cc1nnn(C(Cn2ccnc2)c2ccc(Cl)cc2Cl)c1-c1ccccc1` (stereo unspecified), for which the MIC (against Cyberlindnera jadinii; in the experiment on Candida albicans; with Candida tropicalis; against Aspergillus fumigatus; in experiment [1]; against Rhizopus arrhizus) was 16 µg/mL (≈ 39.1 µM) each time. In the experiment on Mucor hiemalis, this compound gave an MIC of 16 µg/mL (≈ 39.1 µM).

As for `CCCCC(C)(C)c1cnnn1C(Cn1ccnc1)c1ccc(Cl)cc1Cl` (stereo unspecified), the MIC with Cyberlindnera jadinii was 2 µg/mL (≈ 4.92 µM); against Candida albicans, 0.03 µg/mL (≈ 0.0738 µM); in the experiment with Candida tropicalis, 0.03 µg/mL (≈ 0.0738 µM); in the experiment with Aspergillus fumigatus it was 0.5 µg/mL (≈ 1.23 µM); in experiment [1], 8 µg/mL (≈ 19.7 µM); in the experiment on Rhizopus arrhizus, 8 µg/mL (≈ 19.7 µM). 16 µg/mL (≈ 39.4 µM) was the least that counted as inhibitory in the experiment on Mucor hiemalis (MIC).

As to `CSc1ccc(-c2cnnn2C(Cn2ccnc2)c2ccc(Cl)cc2Cl)cc1` (stereo unspecified), the MIC against Cyberlindnera jadinii was 16 µg/mL (≈ 37.2 µM); in the experiment on Candida albicans, 4 µg/mL (≈ 9.29 µM); with Candida tropicalis it was 1 µg/mL (≈ 2.32 µM); in the experiment with Aspergillus fumigatus it was 16 µg/mL (≈ 37.2 µM); in experiment [1] it was 16 µg/mL (≈ 37.2 µM); against Rhizopus arrhizus, 16 µg/mL (≈ 37.2 µM). For the same compound, the MIC against Mucor hiemalis is 16 µg/mL (≈ 37.2 µM).

As for `CCCCCc1c(S(=O)(=O)c2ccccc2)nnn1C(Cn1ccnc1)c1ccc(Cl)cc1Cl` (stereo unspecified), the MIC in the experiment with Cyberlindnera jadinii is 0.25 µg/mL (≈ 0.482 µM); against Candida albicans, 0.06 µg/mL (≈ 0.116 µM); in the experiment with Candida tropicalis, 0.06 µg/mL (≈ 0.116 µM); in the experiment with Aspergillus fumigatus, 2 µg/mL (≈ 3.86 µM); in experiment [1], 0.12 µg/mL (≈ 0.231 µM); against Rhizopus arrhizus, 0.5 µg/mL (≈ 0.964 µM). In the experiment with Mucor hiemalis, this compound showed an MIC of 0.25 µg/mL (≈ 0.482 µM).
